Columns and labels:
[1] = tested on: SH-SY5Y; test: Aβ1-42 poisoning experiment in SH-SY5Y cells (MTT); format: cell-based, human; conditions: n-butylidenephthalide 100 μM, vitamin C 200 μM, alone or in combination, Aβ1-42 1 μM
From the text: Then, the cell viability is detected by a cell survival test using (3-(4,5-dimethylthiazol-2-yl)-2,5-diphenyltetrazolium bromide (MTT) assay.

[2] = tested on: 3xTg AD mice; test: Morris water maze test in AD-3xTg mice; format: in vivo
Method: Red dot, starting point of the swim; green dot, end point of the swim.
N=4 for wild-type and 10 mg/kg donepezil-treated 3xTg mice. N=6 for vehicle-treated 3xTg mice, 60 mg/kg n-BP-treated 3xTg mice, and 120 mg/kg n-BP-treated 3xTg mice. *p-value<0.05, **p-value<0.01 (Student's t-test). […] After 4-12 months, the B6 (C57/BL6) control mice have no AP accumulation (Green color).
The mice behavioral experiment using Morris water maze is a classical test to detect short-term memory and complex memory. Through its behavior, it can be determined whether there is a difference in memory after drug treatment. […] Two sessions were conducted on Day 1 as follows: (1) mice were placed in the swimming pool to adapt to the environment for a training duration of 120 seconds; (2) a hidden rest platform was added to the pool at a precise location in the northwest corner of the pool (blue diamond in the east; red circle in the west and yellow triangle in the south as shown in FIG. 7G) and the mice were allowed for to swim in the pool for a duration of another 120 seconds. If the rescue platform was not found by the mouse within the allocated time, the mouse was guided to the platform. The test for finding the rescue platform is carried out for the next four consecutive days, with each session lasting 90 seconds. The result is collected and analyzed.

[3] = tested on: Notch signaling; conditions: background; cited from earlier work
[4] = tested on: 3′-UTR of PSEN-1; test: Dual luciferase assay with PSEN-1 3′-UTR reporter constructs in SH-SY5Y cells; format: cell-based, human; conditions: 50 nM miR-29b-2-5p
Method: The relative ratios of Renilla and firefly luciferase activity were measured.
The specificity and inhibitory effect of miRNA-29b-2-5p on the specific sequence of PSEN-1 can be confirmed by a dual luciferase assay. The dual luciferase assay includes two luminescence proteins, namely firefly luciferase (molecular weight 61 kDa, emission wavelength at about 560 nm) isolated from firefly (Photlnus pyralls) and Renilla luciferase (molecular weight 31 kDa, emission wavelength at about 480 nm) isolated from Renilla reniformis, which are combined with the sequence to be analyzed and cloned into a vector for amplification. After transfection into cells, the cells emit luminescence. To investigate the influence of these complementary sites, neuroblastoma cell line (SH-SY5Y) as shown in FIG. 2D is used as the cell model and 2 constructs containing continuous complementary (wild type) and noncomplementary (mutant) target site were designed as shown in FIG. 2E. The constructs were then transfected with a miR-29b-2-5p mimic into the SH-SY5Y cell line. The present disclosure uses three different PSEN-1 sequences for dual luciferase analysis, including the wild-type 3′-UTR sequence of PSEN-1, the site 2 mutant having a mutation at site 2 sequence of PSEN-1 that is predicted to be complementary to miRNA-29b-2-5p and double mutant in which both the site 1 and site 2 sequences, which are the sequences of PSEN-1 predicted to be complementary to miRNA-29b-2-5p, are mutated.

[5] = tested on: PSEN-1, PSEN-2, Aβ1-42 and NICD in C6-C99 cells; test: Western blotting of amyloid-related proteins in C6-C99 cells; format: cell-based; conditions: C6-C99 cells transfected with miR-29b-2-5p mimic; compared with control cells; n=3
From the text: FIG. 3B to FIG. 3E are the quantitative results of the Western blotting analysis of PSEN-1, PSEN-2, β-amyloid 1-42 (Aβ1-42) and NICD in FIG. 3A, respectively (p*<0.05, p**<0.01). The C6-C99 cells used in FIGS. 3A to 3E are glioma cells having a fragment of human amyloid precursor protein (APP). This fragment is a peptide fragment with 99 amino acids (APP-C99), which can express large amounts of PSEN-1, PSEN-2, and Aβ 1-42 after activation by cumate.
Western blotting is used to detect the expression levels of amyloid-related proteins, including PSEN-1, PSEN-2, and β-amyloid 1-42 (Aβ1-42), while simultaneously detect the expression level of Notch protein (Notch intracellular domain, NICD), which is an indicator of drug safety. If the Notch protein is not affected, then drug safety is indicated.
APP-C99 was transfected into C6 cells with the C99 peptide through cumate-inducible system activation.

[6] = tested on: lnc-CYP3A43-2; test: Biotin-based pulldown assay with real-time PCR; conditions: real-time PCR of miRNA; n=3
From the text: Then, a biotin-based pulldown assay was used to validate this interaction. The result shown in FIG. 6H indicates the lnc-CYP3A43-2 can affect target miR-29b-2-5p (41.84-fold).

[7] = tested on: PSEN-1, PSEN-2, Aβ1-42 and NICD in C6-C99 cells; test: Western blotting of amyloid-related proteins in C6-C99 cells; format: cell-based; conditions: C6-C99 cells transfected with miR-29b-2-5p mimic, compared with control cells, n=3

## O=C1O[C@H]([C@@H](O)CO)C(O)=C1O [vitamin C, ascorbic acid, reference compound]
[1]
  Cell survival, protection against Aβ1-42 damage: has an effect on increasing cell survival

## COc1cc2c(cc1OC)C(=O)C(CC1CCN(Cc3ccccc3)CC1)C2 (stereo not shown) [donepezil, reference compound]
[2]; 120 mg/kg n-BP, donepezil as positive control
  Locating and arriving at the resting platform: able to quickly locate and arrive at the resting platform
[2]; Day 5, 120 mg/kg n-BP, 10 mg donepezil/kg, vs untreated 3xTg mice
  Time required to find the platform: significantly lower

## CC(C)[C@H](O)C(=O)N[C@@H](C)C(=O)N[C@@H]1C(=O)N(C)CCc2ccccc21 [LY450139]
[3]
  Adverse reactions: causes skin tumors and differentiation of intestinal epithelial cell
  Effect on Notch signaling: damages Notch signaling

## miR-29b-2-5p: mature miRNA-29b-2-5p nucleic acid, sequence cugguuucacaugguggcuuag (SEQ ID NO.: 1); used as mimic (CUGGUUUCACAUGGUGGCUUAG; listed as RNA, chemistry not given here; listed as Homo sapiens)
[4]
  Luminescence of reporter, PSEN-1 double site mutant: abolished the inhibitory effect
  Luminescence of reporter, PSEN-1 site 2 mutant: abolished the inhibitory effect
  Luminescence of reporter, wild type 3′-UTR of PSEN-1: decreased the expression of the reporter
[4]; listed as miRNA-29b-5p
  Luminescence of reporter, PSEN-1 double site mutant: no significant difference in the luminescence emitted
  Luminescence of reporter, PSEN-1 site 2 mutant: no significant difference in the luminescence
  Luminescence of reporter, wild type 3′-UTR of PSEN-1: the luminescence emitted was inhibited
[5]
  PSEN1 expression: 100%±19.31%
[6]
  miR-29b-2-5p in lnc-CYP3A43-2 pulldown: 41.84 fold
[7]
  Aβ1-42 expression: 48.75%±26.77%
[7]; listed as miRNA-29b-2-5p
  Aβ1-42 expression: decreased
  PSEN1 expression: decreased

From patent publication US20220096431A1, “PHARMACEUTICAL COMPOSITION AND METHOD FOR PREVENTING, TREATING AND DIAGNOSING A NEURODEGENERATIVE DISEASE” (BUDDHIST TZU CHI MEDICAL FOUNDATION, priority 2020, published 2022)
